Experiments:
[1] = test system: PTEN; settings: ovarian cancer, reference 25; cited from earlier work
[2] = test system: PTEN; experiment: Immunoblotting of PTEN protein in A2780CP cells after knockdown of miR-214; assay type: cell-based, human; settings: 150 pM/well, 72 h
Description: (§1) PTEN mRNA level was measured by RT-PCR (panel 8). U6 (panel 7) and GAPDH (bottom panel) were used for controls. […] Anti-mi[…] and scramble 2'-O-methyl oligonucleotide were used as controls. After incubation of 72 h, cells were lysed and immunoblotted with indicated antibodies (C). […] Following 36 h incubation, cells were subjected to luciferase assay. The data are the means of three independent experiments, and error bars indicate standard deviations. (F) Representative tumor and normal tissue lysates were analyzed by Western blot with indicated antibodies (panels 1 and 2). […] U6 was used as a control (bottom panel). […] Cells were grown in 6-well plate ([…]) for 24 hand transfected with 150 pMol of 2'-O-me oligoribonucleotides per well using Lipofectamine 2000. RNA and protein were extracted after 72 h transfection. […] The cells transfected with pcDNA3.[…][…]-Togo vector alone and pcDNA3.[…][…]-Topo-miR-199a* were used as controls. […]). […] PTEN protein was examined in a same series of normal ovary and primary ovarian tumor specimens for expression of miRNAs (FIG. 2F).

[3] = test system: Akt; experiment: Immunoblotting of phosphorylation of Akt and Akt substrates in A2780CP cells after knockdown of miR-214; assay type: cell-based, human; settings: 150 pM/well, 72 h
Description: as §1

[4] = test system: miR-214; experiment: qRT-PCR of miR-214 expression after antisense 2'-O-methyl oligonucleotide transfection; assay type: cell-based, human; settings: A2780CP cells, 150 pMol per well, 72 h transfection
Description: (§2) FIG. 4. […] (B) MTT assay. […] (C) Flow cytometry. Indicated cells were treated with cisplatin or DMSO for 12 h and the subG1 population was identified by flow cytometry.
Expression of miRNAs was also analysed by RNase protection or mirVana qRT-PCR miRNA detection assay. For RNase protection assay, enriched small RNA was purified using the miRVana miRNA isolation Kit (Ambion). […] Probe hybridization and RNase protection were then carried out using the mirVana™ miRNA detection kit (Ambion) according to manufacturer's instructions. After hybridization and RNase treatment, the double-strand products were resolved in a 15% polyacrylamide 8 M urea denaturing gel and visualized using phospho imaging and autoradiography. mirVanaqRT-PCR was performed according to the manufacturer's protocol (Ambion). PCR products were analyzed by electrophoresis, on a 7.5% polyacrylamide gel in 0.5×TBE and visualized by ethidium bromide staining.
2′-O-methyl (2-O-me) oligoribonucleotides were synthesized by Integrated DNA Technologies. […] […]-3′ (SEQ ID NO: 5) and 5′-[…]-3′ (SEQ ID NO: 6). 2′-O-me-scrambled miR (5′-[…]-3′) (SEQ ID NO: 7) was used as a control. Cells were grown in 6-well plate ([…]) for 24 hand transfected with 150 pMol of 2′-O-me oligoribonucleotides per well using Lipofectamine 2000. RNA and protein were extracted after 72 h transfection.

[5] = test system: A2780CP cells; experiment: MTT cell viability and flow cytometry apoptosis in A2780CP cells; assay type: cell-based, human
Description: as §2
The cells transfected with 2′-O-methyl-scramble-miR were used as control. […] Further, the cells were treated with cisplatin or vehicle DMSO.

Compound | PTEN protein expression [1] | protein level of PTEN [2] | phosphorylation levels of Akt and Akt substrates GSK3β and p70S6K [3] | level of miR-214 [4] | sensitization to cisplatin-induced apoptosis ([5]; cisplatin 20 uM, MTT and flow cytometry) | reduction of cell survival ([5]; knockdown of miR-214 alone, cell viability analysis)
Nc1ncn([C@H]2C[C@H](O)[C@@H](CO)O2)c(=O)n1 [5-aza-2′ deoxycytidine] | failed to restore PTEN protein expression |  |  |  |  | 
2′-O-methyl-anti-miR-214: antisense 2′-O-methyl oligoribonucleotide targeting miR-214, 5′-CUGCCUGUCUGUGCCUGCUGU-3′ (SEQ ID NO: 5) (all 2'-O-methyl, backbone not given here) |  | increased the protein level of PTEN | decreased | significantly decreased | considerably sensitized A2780CP cells to cisplatin-induced apoptosis | about 20%
